Values of other authors in US9018175B2 (Takeda GmbH, priority 2009, dated 2015).

Key:
[1] = tested on: bleomycin-induced pulmonary fibrosis and pulmonary hypertension; conditions: through inhibition of ROS generation and RhoA/Rho kinase activation (Hemnes et al. 2008); cited from earlier work
[2] = tested on: patients with pulmonary fibrosis; conditions: open-label trials (Ghofrani 2002; Collard 2007); cited from earlier work
[3] = tested on: bleomycin-induced lung fibrosis; conditions: in-vivo, bleomycin-induced lung fibrosis model in mice (Cortijo et al. 2009); cited from earlier work

Row | SMILES | bleomycin-induced pulmonary fibrosis and pulmonary hypertension [1] | exercise tolerance [2] | lung hemodynamic (vascular resistance and ventilation/perfusion matching) [2] | fibrosis development [3]
1 | CCCc1nn(C)c2c(=O)[nH]c(-c3cc(S(=O)(=O)N4CCN(C)CC4)ccc3OCC)nc12 [sildenafil] | attenuates bleomycin-induced pulmonary fibrosis and pulmonary hypertension | increases exercise tolerance | improves lung hemodynamic | –
2 | O=C(Nc1c(Cl)cncc1Cl)c1ccc(OC(F)F)c(OCC2CC2)c1 [roflumilast] | – | – | – | inhibit fibrosis development
